Entries after “also recorded” stand apart in the source; their conditions may differ. One block for each molecule: values may come before it.
Tests used:
Format in all cases: cell-based, porcine
[1] = test system: pgEpiSCs; test: RT-qPCR of marker genes in pgEpiSCs in modified 3i/LAF medium; conditions: for marker gene mRNA expression after removal of the component: component removed from 3i/LAF medium, qRT-PCR
Procedure: Total RNA of pgEpiSCs was extracted using a RNAprep Pure Cell/Bacteria Kit (TIANGEN, DP430), and then reverse transcribed into cDNA using 5× all-in-one RT premix (Abm, G490). PCR was performed using 2× RealStar Green Power Mixture (GenStar, A311-05) on the LightCycler 480 II real-time system (Roche). Comparative CT (2^−ΔΔCT) method was used to analyze the data. ACT was calculated using EF1A as an internal control. Three biological replicates were performed for all experiments. Primers for quantitative real-time PCR were listed in the key resource table.
(§1) Based on the prepared 3i/LAF medium and its culture method in2 above, the requirement of various factors for long-term maintenance in vitro of pgEpiSCs was test by the inventors under the same conditions as in 2 above, except for removing small molecule inhibitors and cytokines from the medium one by one.
(§2) In addition, based on the prepared 3i/LAF medium and its culture method in 2 above, the following tests were also performed by the inventors under the same conditions as in 2 above.

[2] = test system: pgEpiSCs; test: Clone morphology and alkaline phosphatase (AP) staining of pgEpiSCs in modified 3i/LAF medium; conditions: for clone morphology / AP staining after removal of the component: component removed from 3i/LAF medium
Description: The alkaline phosphatase staining for pgEpiSCs was based on the Alkaline Phosphatase Detection Kit (Millipore, SCR004).
The specific experimental steps followed the instructions for the kit.
as §1, §2
According to the 3i/LAF medium and its culture method prepared in 2 above, the inventors also investigated the effect of the adjusted or replaced medium on the long-term in vitro maintenance of pgEpiSCs on the basis of adjusting the concentrations of the small molecule inhibitors and cytokines or replacing the compositions of the small molecule inhibitors and cytokines in the culture medium one by one without altering the other conditions.
Experimental method: pgEpiSCs were cultured with the adjusted medium, after which AP staining was performed on the cultured pgEpiSCs of P1 (indicating the pgEpiSCs after 1 passage in the adjusted medium) or P3 (indicating the pgEpiSCs after 3 passages in the adjusted medium). The specific steps of AP staining are described in the section of Experimental Methods described previously.
Principle of the experiment: undifferentiated stem cells will express Ap at high level. By staining fixed stem cells, differentiated cells show no color and undifferentiated cells show purple or red color.

[3] = test system: pgEpiSCs; test: Immunofluorescence of POU5F1 and EOMES in pgEpiSCs in modified 3i/LAF medium; conditions: component removed from 3i/LAF medium
Procedure: Cells were washed with DPBS (Gibco, C14190500BT) and fixed with 4% paraformaldehyde at room temperature for 30 minutes, then washed again with DPBS, permeabilized in 0.1% Triton X-100 for 20 minutes, and blocked with 3% BSA for 1 hour. Cells were incubated with the primary antibody diluted with 3% BSA overnight at 4° C. Cells were then washed 3 times with the washing buffer (DPBS containing 0.1% Triton X-100 and 0.1% Tween 20) for 3 minutes each time. Cells were incubated with diluted secondary antibody and washing buffer together at room temperature for 1 hour, then washed 3 times with the washing buffer for 5 minutes, followed by nuclear staining with DAPI (Roche Life Science, 10236276001) for 3 minutes.
as §1

[4] = test system: pgEpiSCs; test: Proliferation and passage of pgEpiSCs with FGF2 removed or varied; conditions: for proliferation and passage of pgEpiSCs: FGF2 removed, with addition of PD0325901
Procedure: Porcine EpiSCs were cultured in 12-well plates. Cell samples were seeded in triplicate at a density of 2×10^4 cells per well. Cells were counted every 12 hours. Cells were digested and counted using the Luna™ automated cell counter at each time point. The results of the three counts were averaged and plotted. The cell doubling time was calculated as follows: Doubling Time (DT)=24×[lg2/(lgNt−IgN0)], where 24 was the cell culture time (hours); Nt was the number of cells cultured for 48 hours; and No was the number of cells recorded at 24 hours.
as §1

[5] = test system: phosphorylated STAT3; test: Western blot of phosphorylated STAT3 in pgEpiSCs; conditions: with or without LIF; Western blotting
Procedure: Total proteins in cells were extracted using cell lysis buffer (Beyotime Biotechnology, P0013), and nuclear and cytoplasmic proteins were extracted using a cell nucleus and cytoplasmic protein extraction kit (Beyotime Biotechnology, P0027) supplemented with protease and phosphatase inhibitors (P1050). The concentration of extracted proteins was measured using a Bradford protein detection kit (Bio-red, 5000201). An equal amount of proteins (15 μg) were separated by SDS-PAGE gel electrophoresis, and then transferred from the gel to the Immobilon-P transfer membrane (Merck Millipore; pore size: 0.45 μm; IPVH00010). The blots were blocked in 5% skim milk powder (Sangon Biotech, A600669-0250) in TBST (20 mM Tris, pH 7.5; 150 mM NaCl; 0.1% Tween 20) at room temperature for 1 hour, and then incubated with the antibody diluted in 5% skim milk powder in TBST at 4° C. overnight. The next day, the blots were rinsed 3 times with TBST for 5 minutes each time, and then incubated with HRP conjugated secondary antibody diluted in 5% skim milk powder in TBST at room temperature for 1 hour, and finally rinsed 3 times with TBST for 5 minutes each time. The blots were developed using SuperSignal® West Dura Extended Duration Substrate (Thermo Fisher Scientific, 34075), followed by analysis of the band strength of the target protein using the CLINX chemiluminescence software. […]

[6] = IWR-1-endo replaced in 3i/LAF medium

Molecule: Cc1c[nH]c(-c2cnc(NCCNc3ccc(C#N)cn3)nc2-c2ccc(Cl)cc2Cl)n1 [CHIR99021]
- marker gene mRNA expression after removal of the component [1]: downregulated the expression of cell proliferation related genes such as LIN28A, C-MYC, ETV4 and ETV5
- expression of POU5F1 and GATA6 at high concentration ([1]; high concentration of CHIR99021 in 3i/LAF medium): downregulation of the pluripotency marker POU5F1 and significant upregulation of the endodermal marker GATA6; also recorded: the expression of the pluripotency gene POU5F1 was reduced, and the expression of the lineage differentiation gene GATA6 was upregulated, presenting a heterogeneous expression pattern
- expression levels of TBX3 and ESRRB ([1]; increasing concentration of CHIR99021 in 3i/LAF medium): increased with increasing concentration

- clone morphology / AP staining after removal of the component [2]: unclear boundaries of pgEpiSC clones
Molecule: O=C(Nc1cccc2cccnc12)c1ccc(N2C(=O)[C@@H]3[C@H](C2=O)[C@@H]2C=C[C@H]3C2)cc1 [IWR-1-endo]
- marker gene mRNA expression after removal of the component [1]: significant downregulation of core pluripotency factors such as NANOG, POU5F1, SOX2 and REX1; also recorded: upregulation of the gastrulation formation marker genes BMP2, BMP4, EOMES and T
- POU5F1 and EOMES immunostaining after removal of the component [3]: reduced or heterogeneous accumulation of the pluripotency factor POU5F1, while promoting the expression of the mesoderm and endoderm progenitor cell marker EOMES

Molecule: O=C(NOC[C@H](O)CO)c1ccc(F)c(F)c1Nc1ccc(I)cc1F [PD0325901]
- proliferation and passage of pgEpiSCs [4]: could not proliferate or passage normally

- clone morphology after addition of the inhibitor ([2]; inhibitor added to the medium): irregular clone morphology
Molecule: NC(=O)c1ccc(-c2nc(-c3ccc4c(c3)OCO4)c(-c3ccccn3)[nH]2)cc1 [SB431542]
- BMP4 and BMP downstream transcription factors ID2, ID3 after addition of the inhibitor ([1]; inhibitor added to the medium): significant increase in BMP4 and BMP downstream transcription factors (such as ID2 and ID3)
- NANOG levels after addition of the inhibitor ([1]; inhibitor added to the medium): significant decline in NANOG levels
- pluripotency markers POU5F1 and REX1 after addition of the inhibitor ([1]; inhibitor added to the medium): significant decrease in pluripotency markers (such as POU5F1 and REX1)

Molecule: COc1ccc(N(C(=O)Oc2c(C)cccc2C)c2ccnc(Nc3ccc(N4CCN(C)CC4)cc3)n2)c(OC)c1 [WH-4-023]
- marker gene mRNA expression after removal of the component [1]: upregulation of the gastrulation formation marker genes BMP2, BMP4, EOMES and T
- POU5F1 and EOMES immunostaining after removal of the component [3]: reduced or heterogeneous accumulation of the pluripotency factor POU5F1, while promoting the expression of the mesoderm and endoderm progenitor cell marker EOMES

Molecule: Oc1nc(-c2ccc(C(F)(F)F)cc2)nc2c1CSCC2 [XAV939]
- maintenance of pluripotency after replacing IWR-1-endo [2, 6]: unable to maintain pluripotency for a long time
- passages until AP positivity was lost [2, 6]: around 8 passages
- expression of core pluripotency factor OCT4 (POU5F1) [1, 6]: downregulated
- expression of pluripotency factors REX1, STELLA, and ESRRB [1, 6]: downregulated

Molecule: FGF2: fibroblast growth factor; recombinant human FGF-basic, Peprotech 100-18B
- proliferation and passage of pgEpiSCs [4]: could not proliferate or passage normally
- proliferation of pgEpiSCs at high concentration ([4]; high concentration of FGF2): cells proliferated faster at the high concentration
- proliferation ability of pgEpiSCs at reduced concentration ([4]; reduced concentration of FGF2, otherwise unchanged conditions): significantly reduced the proliferation ability of pgEpiSCs

Molecule: LIF: cytokine of 3i/LAF; recombinant human LIF, PeproTech 300-05
- detection of phosphorylated STAT3 [5]: phosphorylated STAT3 could only be detected in the presence of LIF
- clone morphology / AP staining after removal of the component [2]: not a necessary condition for maintaining the morphology of pgEpiSC clones

B1: Activin A: a member of the TGF-β superfamily; recombinant human Activin A, Peprotech 120-14E (protein, UniProt P08476 311-426, looked up)
Inhibin beta A chain: GLECDGKVNICCKKQFFVSFKDIGWNDWIIAPSGYHANYCEGECPSHIAGTSGSSLSFHSTVINHYRMRGHSPFANLKSCCVPTKLRPMSMLYYDDGQNIIKKDIQNMIVEECGCS
modifications: Inhibin beta A chain recombinant homodimer
- marker gene mRNA expression after removal of the component [1]: reduced levels of the pluripotency marker NANOG

— patent publication US20240400980A1, “PORCINE PLURIPOTENT STEM CELL CULTURE MEDIUM AND USE THEREOF” (CHINA AGRICULTURAL UNIVERSITY, priority 2021, published 2024)
